Assay results: patent publication US20250092065A1, “2-(INDAZOL-5-YL)-6-(PIPERIDIN-4-YL)-1,7-NAPHTHYRIDINE DERIVATIVES AND RELATED COMPOUNDS AS MODULATORS FOR SPLICING NUCLEIC ACIDS AND FOR THE TREATMENT OF PROLIFERATIVE DISEASES” (REMIX THERAPEUTICS INC., priority 2022, published 2025)
Counter-ions that a name gives are not always drawn.

Tests used:
[1] = test system: K562 cells; assay: Cell Titer Glo 2.0 cell viability (toxicity) assay, K562; details: 500 cells/well, 72 hours
[2] = test system: Target C; assay: RT-qPCR canonical junction panel assay, Target C mRNA; format: cell-based; details: Table 4, read-out: Target C IC50 (decrease in CJ mRNA levels)
Outline: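 A673 or K562 cells treated with compound; CJ mRNA quantified by junction-spanning RT-qPCR probe after cDNA synthesis, normalised to GAPDH, GUSB or PPIA and DMSO (2^−ΔΔCt), scaled to set ΔCt assay window; IC50 from 4-parameter fit of CJ decrease.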

[3] = test system: SMN2 mRNA; assay: RT-qPCR splicing assay, SMN2 mRNA; format: cell-based, human; details: Homo sapiens, canonical junction qPCR panel, Table 4; read-out: SMN2 IC50 (decrease in CJ mRNA levels)
Outline: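 A673 or K562 cells treated 24 h at 37 °C with an 11-point 3-fold dilution series (top 10 uM, DMSO ≤0.25%). Lysates went directly to one-step RT-qPCR quantifying canonical (CJ) and alternative-exon (AJ) junctions, normalized to GAPDH, GUSB or PPIA. Values from ΔΔCt versus DMSO, RQ = 2^(−ΔΔCt), expressed as percentage response.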

Row | IC50 [2] | IC50 [3] | SMILES | Effect of Exemplary Compounds on Cell Viability, K562 [1]
1 | 100 to 1000 nM | – | C[C@H]1CN(c2cc(F)c3nc(-c4cc(F)c5nn(C)cc5c4)ccc3c2)C[C@H](C)N1 (single isomer, unassigned) [Compound 760] | B (B represents 100-1000 nM)
2 | 100 to 1000 nM | – | C[C@H]1CN(c2cc(F)c3nc(-c4cc5cn(C)nc5cc4O)ccc3c2)C[C@H](C)N1 (single isomer, unassigned) [Compound 770] | B (B represents 100-1000 nM)
3 | 1000 to 10000 nM | – | Cc1cn2nc(-c3ccc4cc(N5C[C@H](C)N[C@@H](C)C5)cc(F)c4n3)cc(C)c2n1 (single isomer, unassigned) [Compound 799] | B (B represents 100-1000 nM)
4 | 100 to 1000 nM | – | Cc1c(O)c(-c2ccc3cc(N4C[C@H](C)N[C@@H](C)C4)cc(F)c3n2)cc2cn(C)nc12 (single isomer, unassigned) [Compound 800, 2,2,2-trifluoroacetate] | A (A represents <100 nM)
5 | > 10000 nM | – | Cc1nc(-c2cc3cn(C)nc3cc2O)nc2ccc(N3C[C@H](C)N[C@@H](C)C3)cc12 (single isomer, unassigned) [Compound 806] | B (B represents 100-1000 nM)
6 | > 10000 nM | – | Cc1nc(-c2cc3cn(C)nc3c(C)c2O)nc2ccc(N3C[C@H](C)N[C@@H](C)C3)cc12 (single isomer, unassigned) [Compound 807] | B (B represents 100-1000 nM)
7 | 1000 to 10000 nM | 100 to 1000 nM | Cn1cc2cc(-c3cc4ccc(C5CCNCC5)nc4cn3)c(O)cc2n1 [Compound 104] | C (C represents 1000-9999 nM)
8 | 100 to 1000 nM | < 100 nM | Cn1cc2cc(-c3ccc4nc(N5CC[C@H](NC6CCC6)C5)ccc4n3)c(O)cc2n1 [Compound 156] | B (B represents 100-1000 nM)
9 | 100 to 1000 nM | < 100 nM | CC(C)N[C@H]1CCN(c2ccc3nc(-c4cc5cn(C)nc5cc4O)ccc3n2)C1 [Compound 171] | B (B represents 100-1000 nM)
10 | < 100 nM | < 100 nM | Cc1cn2nc(-c3ccc4nc(N5CCC(NC(C)(C)C)C5)ccc4n3)cc(C)c2n1 (stereo not drawn) [Compound 186] | B (B represents 100-1000 nM)
11 | 100 to 1000 nM | < 100 nM | Cn1cc2cc(-c3ccc4nc(N5CC[C@H](NCC6CC6)C5)ccc4n3)c(O)cc2n1 [Compound 194] | B (B represents 100-1000 nM)
12 | 1000 to 10000 nM | < 100 nM | CN(C)C1CCN(c2ccc3nc(-c4cc5cn(C)nc5c(F)c4O)ncc3c2)CC1 [Compound 757, 5-{6-[4-(dimethylamino)piperidin-1-yl]quinazolin-2-yl}-7-fluoro-2-methylindazol-6-ol] | A (A represents <100 nM)
13 | 1000 to 10000 nM | < 100 nM | C[C@@H]1CN(c2cc(F)c3nc(-c4cc(F)c5nn(C)cc5c4)ccc3c2)C[C@H](C)N1 [Compound 758, 6-[(3R,5S)-3,5-dimethylpiperazin-1-yl]-8-fluoro-2-(7-fluoro-2-methylindazol-5-yl)quinoline] | B (B represents 100-1000 nM)
14 | 1000 to 10000 nM | < 100 nM | C[C@@H]1CN(c2cc(F)c3nc(-c4cc5cn(C)nc5c(F)c4O)ccc3c2)C[C@H](C)N1 [Compound 763, 5-{6-[(3R,5S)-3,5-dimethylpiperazin-1-yl]-8-fluoroquinolin-2-yl}-7-fluoro-2-methylindazol-6-ol hydrochloride] | A (A represents <100 nM)
15 | 1000 to 10000 nM | < 100 nM | C[C@@H]1CN(c2cc(F)c3nc(-c4cc5cn(C)nc5cc4O)ccc3c2)C[C@H](C)N1 [Compound 768, 5-{6-[(3R,5S)-3,5-dimethylpiperazin-1-yl]-8-fluoroquinolin-2-yl}-2-methylindazol-6-ol hydrochloride] | C (C represents 1000-9999 nM)
16 | 1000 to 10000 nM | < 100 nM | Cc1cn2cc(-c3ncc4cc(N5C[C@@H](C)N[C@@H](C)C5)ccc4n3)cc(F)c2n1 [Compound 773, 6-[(3R,5S)-3,5-dimethylpiperazin-1-yl]-2-{8-fluoro-2-methylimidazo[1,2-a]pyridin-6-yl}quinazoline] | B (B represents 100-1000 nM)
17 | 1000 to 10000 nM | < 100 nM | Cc1cn2cc(-c3nc(C(=O)NC4CCC4)c4cc(N5C[C@@H](C)N[C@@H](C)C5)ccc4n3)cc(F)c2n1 [Compound 779, N-cyclobutyl-6-[(3R,5S)-3,5-dimethylpiperazin-1-yl]-2-{8-fluoro-2-methylimidazo[1,2-a]pyridin-6-yl}quinazoline-4-carboxamide] | A (A represents <100 nM)
18 | > 10000 nM | – | Cc1c(O)c(-c2nc(C(N)=O)c3cc(N4C[C@H](C)N[C@@H](C)C4)ccc3n2)cc2cn(C)nc12 [Compound 796] | A (A represents <100 nM)
19 | > 10000 nM | – | C[C@H]1CN(c2ccc3nc(-c4cc5cn(C)nc5cc4O)nc(C(N)=O)c3c2)C[C@H](C)N1 [Compound 797] | A (A represents <100 nM)
20 | 100 to 1000 nM | < 100 nM | Cc1cn2cc(-c3ncc4cc(N5C[C@H](C)N[C@@H](C)C5)ccc4n3)cc(F)c2n1 [Compound 803, 6-[(3S,5S)-3,5-dimethylpiperazin-1-yl]-2-{8-fluoro-2-methylimidazo[1,2-a]pyridin-6-yl}quinazoline] | A (A represents <100 nM)
21 | 100 to 1000 nM | – | Cc1c(O)c(-c2ccc3cc(N4CCNC5(CC5)C4)cc(F)c3n2)cc2cn(C)nc12 [Compound 805, 5-(6-{4,7-diazaspiro[2.5]octan-7-yl}-8-fluoroquinolin-2-yl)-2,7-dimethylindazol-6-ol] | B (B represents 100-1000 nM)
